Measurements: PubChem BioAssay AID489041 (Sanford-Burnham Center for Chemical Genomics, 2010)
Calls of active or inactive are those of the source. No rule for the calls is given here.

The molecules below were run on HEK-293T NF-kB luciferase reporter counterscreen, luminescence (assay: inhibitors of HEK-293T NF-kB luciferase – HEK-293T cells, luminescence, counter-screen for T-cell antigen receptor NF-kB inhibitors, dose response (AID 489041)).
For `COC(=O)c1c(NC(=O)c2ccc([N+](=O)[O-])o2)sc2c1CCN(C(C)C)C2`, the IC50 was 51.8 µM (inactive).
In the case of `COc1ccc(C2=NOC(C(=O)NCc3ccc(F)cc3)C2)cc1OC` (stereo not given), the IC50 is reported as 14.7 µM.
`CCOC(=O)C(C)Oc1cccc2c(=O)n(CC(=O)NCc3ccccc3)ccc12` (stereo not given) showed an IC50 of 0.78 µM.
Work on `CCOC(=O)c1ccccc1NC(=O)Cn1c(-c2nonc2N)nc2ccccc21` yielded an IC50 of 0.47 µM.
For `CCn1c2ccccc2c2cc(Nc3cc(C)nc4ncnn34)ccc21`, the IC50 was 1.34 µM.
With `CCOc1ccc(NC(=O)c2cc3c(C)nc4ccccc4c3o2)cc1` the IC50 was 6.08 µM.
With `CN(C)c1ccc(-[n+]2c(-c3ccccc3)cc(-c3ccccc3)cc2-c2ccccc2)cc1` the IC50 was 1.48 µM.
`CCOC(=O)COc1cccc2c(=O)n(CC(=O)NCc3ccccc3)ccc12` gave an IC50 of 0.63 µM.
For `CC(C)(C)c1ccc(C(=O)Nc2ccc(Oc3cccnc3)nc2)cc1`, the IC50 was 2.18 µM.
`COc1cc(NC(=O)N2CCNC2=O)cc(C(=O)Nc2cccc(C(F)(F)F)c2)c1` showed an IC50 of 2.17 µM.
`CCCN(CCC)C1=CC(=[N+]2CCCC2)CC(C)(C)C1` gave an IC50 of 2.39 µM.
With `CC(C)n1c(CN(C)Cc2ccccc2)nc2c1c(=O)n(C)c(=O)n2C` the IC50 was 2.88 µM.
With `O=C1c2c(O)ccc(O)c2C(=O)c2c(NCCNCCO)ccc(NCCNCCO)c21` the IC50 was 10.7 µM.
`O=C(c1ccccc1-c1ccccc1)N1CCN(c2ccccn2)CC1` was tested, and the IC50 was > 80 µM (inactive).
For `O=C(OCCN1C(=O)c2cccc3c(N4CCOCC4)ccc(c23)C1=O)c1ccc(Cl)cc1`, the IC50 was 7.66 µM.
With `CCC(C)C(=O)N[C@@H](c1ccccc1)[C@@H](O)C(=O)O[C@H]1C[C@@]2(O)[C@@H](OC(=O)c3ccccc3)C3[C@](C)(C(=O)[C@H](OC(C)=O)C(=C1C)C2(C)C)[C@@H](O)C[C@H]1OC[C@@]31OC(C)=O` (stereo not given in full) the IC50 was > 80 µM (inactive).
`Cc1ccc(-c2cc(C(F)F)n3ncc(C(=O)N4CCc5ccccc54)c3n2)cc1` gave an IC50 of 9.99 µM.
`COc1ccc(C)c(Cn2c(-c3nonc3N)nc3ccccc32)c1` was tested, and the IC50 was 1.84 µM.
With `CC(C)c1oc(=O)cc2c1[C@@H](O)[C@H]1OC(=O)[C@@]3(C)C[C@@H](O)[C@@H](O)[C@@]2(C)C13` (stereo not given in full) the IC50 was 0.75 µM.
In the case of `CCOC(=O)c1c(C)[nH]c(C(=O)N/N=C/c2ccc(Br)cc2)c1C`, the IC50 is reported as less than 0.16 µM.
Work on `CC(Oc1ccc(Cl)cc1Cl)c1nc(-c2ccc(NC(=O)c3ccncc3)cc2)no1` (stereo not given) yielded an IC50 of 2.39 µM.
For `CCc1cc2c(=O)nc3n(c2s1)Cc1ccccc1/C3=C(/O)c1cccc([N+](=O)[O-])c1`, the IC50 was > 80 µM (inactive).
For `O=C(Sc1cccc2cccnc12)c1ccccc1Br`, the IC50 was 27.1 µM (inactive).
For `Cc1ccc2oc(/N=C(\N)NC(=O)C(C)(C)C)nc2c1`, the IC50 was less than 0.16 µM.
With `CCOC(=O)C(C)Oc1cccc2c(=O)n(CC(=O)NCc3ccco3)ccc12` (stereo not given) the IC50 was 7.92 µM.
With `CCOc1ccc(N(C)S(=O)(=O)c2ccc(-c3cc(C)no3)s2)cc1` the IC50 was 7.17 µM.
With `CC1=C(C(=O)OCc2ccc3c(c2)OCO3)C(c2ccc(Cl)cc2)NC(=O)N1` (stereo not given) the IC50 was less than 0.16 µM.
In the case of `COC(=O)c1ccc(C)c(NS(=O)(=O)c2ccc3c(c2)OCCO3)c1`, the IC50 is reported as 20.1 µM (inactive).
In the case of `Cc1ccc(O)c(NC(=O)c2cc(-c3ccccc3)on2)c1`, the IC50 is reported as > 80 µM (inactive).
`COc1cc(C2c3cc4c(cc3CC3COC(=O)C32)OCO4)cc(OC)c1OC` (stereo not given) was tested, and the IC50 was > 80 µM (inactive).
Molecule `COc1cccc(/C=N/NC(=O)c2[nH]nc3c2CCc2ccccc2-3)c1O` has an IC50 of 0.21 µM.
In the case of `CCn1cc(C(=O)NC2CCCc3c2cnn3-c2cccc(C)c2C)cn1` (stereo not given), the IC50 is reported as 14.7 µM.
In the case of `COc1cccc(-c2cc(C(=O)Nc3cc(C)n(Cc4ccc(Cl)cc4)n3)no2)c1`, the IC50 is reported as 4.24 µM.
With `Cc1ccc2c(c1)C=CC(C#N)N2C(=O)c1ccccc1` (stereo not given) the IC50 was 29.1 µM (inactive).
With `COc1ccccc1N1CCN(C(=O)c2ccc(-c3ccc(Cl)cc3)o2)CC1` the IC50 was 10.1 µM.
With `CCOc1ccc2c(c1)OC(c1ccc(OC)cc1)(C(F)(F)F)NC2=O` (stereo not given) the IC50 was 9.2 µM.
Molecule `COc1cc(OC)c(/C=C2\C(=O)Nc3ccccc32)c(OC)c1` has an IC50 of 6.26 µM.
Work on `Cn1c2c(c(=O)n(C)c1=O)C(C(F)(F)F)(C(F)(F)F)N=C(c1ccc(Cl)cc1)N2` yielded an IC50 of 1.62 µM.
`COc1ccc(C2=NOC(C(=O)NCc3cccs3)C2)cc1OC` (stereo not given) was tested, and the IC50 was 35.2 µM (inactive).
With `CCCC(=O)NC(c1ccc(OC)cc1)c1ccc2cccnc2c1O` (stereo not given) the IC50 was > 80 µM (inactive).
For `CCCOC(=O)c1[nH]c2c(c1C)C(=O)CC(c1cccs1)C2` (stereo not given), the IC50 was 15.2 µM.
`Cc1ncoc1C(=O)NC1CCCc2c1cnn2-c1ccc(C(C)(C)C)cc1` (stereo not given) gave an IC50 of 3.41 µM.
`COc1ccccc1NC(=O)C1=C(C)Nc2nc3ccccc3n2C1c1cccs1` (stereo not given) was tested, and the IC50 was 13.6 µM.
In the case of `COc1ccc(Cl)cc1NC(=O)CN(C)CC(=O)Nc1ccccc1N1CCOCC1`, the IC50 is reported as 12 µM.
Work on `COc1ccc(CC(=O)Nc2cccc(-c3nnc(-c4cccc(C)c4)o3)c2)cc1OC` yielded an IC50 of 1.24 µM.
Molecule `COc1cc(NS(=O)(=O)c2ccc(OC)c(C)c2C)c(OC)cc1Cl` has an IC50 of 5.28 µM.
In the case of `CCOC(=O)Nc1nc(-c2ccccc2)c(C(=O)c2ccccc2)s1`, the IC50 is reported as > 80 µM (inactive).
In the case of `O=C1C=CC(O)(c2cc(=O)c3c(O)cc(O)cc3o2)C=C1`, the IC50 is reported as 20.5 µM (inactive).
`CCN(CC)c1ccc(/C=N/NC(=O)c2nnn(-c3nonc3N)c2C(C)C)c(O)c1` showed an IC50 of 0.22 µM.
For `O=S(=O)(c1cc(F)ccc1F)N1CCN(c2ncnc3ccccc23)CC1`, the IC50 was 3.94 µM.
With `O=S1(=O)Nc2c(ccc3cccnc23)-c2ccccc21` the IC50 was 0.28 µM.
With `Cc1ccc(C(=O)O/N=C(\N)c2ccccn2)c(C)c1` the IC50 was 0.53 µM.
For `COc1cccc2sc(Nc3nnc(-c4ccccc4Cl)o3)nc12`, the IC50 was > 80 µM (inactive).
In the case of `Cc1ccccc1NS(=O)(=O)c1ccc(N2CCCC2=O)cc1`, the IC50 is reported as 42.2 µM (inactive).
Molecule `CCOc1ccccc1NS(=O)(=O)c1ccc(-c2cnc(C3CC3)o2)cc1` has an IC50 of 1.79 µM.
`O=C(Nc1nc(-c2ccccn2)cs1)c1ccc(Cl)s1` gave an IC50 of 4.44 µM.
For `Oc1ccccc1N=Nc1nc(-c2ccccc2)c(-c2ccccc2)[nH]1`, the IC50 was 2.84 µM.
With `CCOC(=O)c1[nH]c(C)c(C(=O)Nc2ccc(C)cc2C)c1C` the IC50 was 46.1 µM (inactive).
`O=C(Nc1ccc(Cl)c(S(=O)(=O)N2CCOCC2)c1)c1ccc(OCC2CCCO2)cc1` (stereo not given) showed an IC50 of 3.14 µM.
With `Cn1cc(/C=N/n2cnc3scc(-c4ccc(Cl)cc4)c3c2=O)c2ccccc21` the IC50 was 0.22 µM.
For `COc1ccc(NC(=O)C(=O)NCC2CCCN2S(=O)(=O)c2cccs2)cc1` (stereo not given), the IC50 was 21 µM (inactive).
Work on `Cc1ccc(C)c(CSc2nc3[nH]ncc3c(=O)[nH]2)c1` yielded an IC50 of 4.88 µM.
Molecule `CC(=O)c1ccc(Oc2cc(C)nc(-n3nc(C)cc3C)n2)cc1` has an IC50 of 14.6 µM.
`O=C(Nc1ncc(Cc2ccc(SC(F)F)cc2)s1)c1ccc(OC(F)F)cc1` showed an IC50 of 3.66 µM.
`COc1ccc2nc(C)cc(N/N=C/c3ccc(F)cc3)c2c1` was tested, and the IC50 was 22.4 µM (inactive).
`COc1ccc(OCC(=O)Nc2ccccc2N2CCCCC2)cc1` gave an IC50 of 12 µM.
Molecule `CCn1c(C)cc(C(=O)CN2C(=O)c3ccccc3S2(=O)=O)c1C` has an IC50 of 5.36 µM.
`COc1ccc(OC)c(NS(=O)(=O)c2ccc(N3CCCC3=O)cc2)c1` gave an IC50 of 4.36 µM.
Work on `COc1ccccc1C1=NOC(COc2ccc3c(C)cc(=O)oc3c2)C1` (stereo not given) yielded an IC50 of 4.89 µM.
For `Cc1ccc(C(=O)Nc2ncc(Cc3ccc(SC(F)F)cc3)s2)cc1`, the IC50 was > 80 µM (inactive).
`Cn1c(SC2=CS(=O)(=O)c3ccccc32)nc2ccccc21` gave an IC50 of 12.2 µM.
`CCCOc1ccccc1C1CC(=O)Nc2cc3c(cc21)OCO3` (stereo not given) was tested, and the IC50 was 2.25 µM.
`Cc1ccc(C(=O)Nc2cc3ccccc3oc2=O)cc1` was tested, and the IC50 was 0.94 µM.
`Cc1ccc(C(=O)c2cc([N+](=O)[O-])ccc2N2CCCCC2)c(C)c1` showed an IC50 of 7.17 µM.
`O=C(c1ccc(Cl)cc1)c1cc([N+](=O)[O-])ccc1N1CCOCC1` was tested, and the IC50 was 11.9 µM.
With `CC1Cc2cc(-c3csc(NC(=O)Cc4cccs4)n3)ccc2N1S(C)(=O)=O` (stereo not given) the IC50 was 2 µM.
For `COc1cc2nc(NC(=O)c3ccco3)sc(=O)c2cc1OC`, the IC50 was 66.7 µM (inactive).
With `CCOC(=O)c1[nH]c(C=O)c(C(=O)OCC)c1C` the IC50 was 15.5 µM.
`CCC(O)C1CCN(C(=O)c2cc(COc3ccc4ncccc4c3)on2)CC1` (stereo not given) showed an IC50 of 1.72 µM.
With `COC(=O)c1ccc(Oc2cc(C)nc(SC)n2)cc1` the IC50 was 28.8 µM (inactive).
In the case of `COc1cc([C@@H]2c3cc4c(cc3[C@@H](OC)[C@H]3COC(=O)[C@H]23)OCO4)cc(OC)c1O`, the IC50 is reported as > 80 µM (inactive).
`CC(=O)N1c2ccc(S(=O)(=O)N3CCC(C(=O)Nc4cccc(C)n4)CC3)cc2CC1C` (stereo not given) was tested, and the IC50 was 5.57 µM.
For `O=[N+]([O-])c1ccc(Sc2ccc(Cl)c(Cl)c2)nc1`, the IC50 was 64 µM (inactive).
For `Cn1cc(C(=O)N/N=C/c2c(O)ccc3ccccc23)ccc1=O`, the IC50 was > 80 µM (inactive).
`COc1cccc(CN(C)C(=O)c2cc(COc3ccc4ncccc4c3)on2)c1` gave an IC50 of 1.9 µM.
Work on `COc1cc(C2C3=C(Nc4ncnn42)c2ccccc2CC3)cc(OC)c1OC` (stereo not given) yielded an IC50 of 0.83 µM.
With `CC(C)Cn1c(N)c(C(=O)CSc2ccc3c(c2)OCCO3)c(=O)n(C)c1=O` the IC50 was 0.85 µM.
In the case of `O=C(N/N=C\c1c(O)ccc2ccccc12)c1ccc(S(=O)(=O)N2CCCCC2)cc1`, the IC50 is reported as > 80 µM (inactive).
`CCOc1ccc(N/C(N)=N/c2nc(CSc3nnc(C)s3)cc(=O)[nH]2)cc1` was tested, and the IC50 was 29.9 µM (inactive).
In the case of `CC[C@@]1(O)C(=O)OCc2c1cc1n(c2=O)Cc2cc3c(N)cccc3nc2-1`, the IC50 is reported as 6.02 µM.
For `Brc1ccc2c(c1)C(C1=NCCN1)c1ccccc1CS2` (stereo not given), the IC50 was > 80 µM (inactive).
`Cc1oc2c(c1C(=O)NCc1cccnc1)C(=O)c1ccccc1C2=O` was tested, and the IC50 was 1.48 µM.
In the case of `CCn1ncc(C2=NOC(C(=O)NCc3ccccc3)C2)c1C` (stereo not given), the IC50 is reported as 2.39 µM.
With `CCCCCCCOc1ccc(OC(=O)c2ccncc2)cc1` the IC50 was > 80 µM (inactive).
Molecule `CCc1ccc(/C=N/NC(=O)c2cc(-c3ccncc3)nc3ccccc23)s1` has an IC50 of 7.66 µM.
For `CCOc1ccccc1N1CC(O)=C(c2nc3ccccc3s2)C1=N`, the IC50 was 8.73 µM.
In the case of `COc1ccc(CS(=O)(=O)/C(Cl)=C(/Cl)C(=O)Nc2ccc(OC)nc2)cc1`, the IC50 is reported as 3.46 µM.
`CCCSc1nnc(Sc2nnnn2-c2ccccc2)s1` was tested, and the IC50 was 9.43 µM.
For `CCCCS(=O)(=O)/C=C\C=C/S(=O)(=O)CCCC`, the IC50 was 20.2 µM (inactive).
`CCCOc1ccc(/C=N/Nc2cc(N3CCOCC3)ncn2)c(O)c1` gave an IC50 of 0.38 µM.
In the case of `Cc1nn(C)c(C)c1CN(Cc1nc(CCC(C)C)no1)C(C)C`, the IC50 is reported as 11 µM.
With `COc1ccc(-c2c(C#N)c(N)nc3c2CCc2ccccc2-3)cc1OC` the IC50 was 8.28 µM.
Molecule `C(=N\Nc1nc2ccccc2s1)/c1ccccn1` has an IC50 of 1.45 µM.
In the case of `CCCCCCCOc1ccc(OC(=O)c2cccnc2)cc1`, the IC50 is reported as > 80 µM (inactive).
In the case of `C=C1C(=O)O[C@H]2C[C@@H](C)[C@@H]3C=CC(=O)[C@@]3(C)C[C@H]12`, the IC50 is reported as 5.84 µM.
